Experimental data reported in article PMC11724075, “Small-molecule-induced ERBB4 activation to treat heart failure” (Nature Communications, 2025).
Values joined by “and” are separate entries in the source; they are usually repeats but may differ in a detail not shown here. Equal values may be shown once. Each block holds one molecule with its values, some of them ahead of it.

Experiments:
ERBB4/ERBB4 = biological target: T1, ERBB4/ERBB4 (Homo sapiens, UniProt Q15303); assay: NRG1 dose-response in ERBB4/ERBB4 dimerization assay with co-administration of EF-1; assay type: cell-based
T1 construct: host or cells: U2OS (osteosarcoma cells), PathHunter engineered line
Method: U2OS ERBB4/ERBB4 dimerization cells were seeded at a density of 5 × 10^4 cells/well in 100 µL Cell Plating 0 Reagent, in white 96-well plates (PerkinElmer, 6005680) and incubated for 24 h at 37 °C, 5% CO2. […] Next, 110 µL PathHunter Flash Detection Reagent was added to each well and incubated at RT for 1 h after which the luminescence signal was measured using the Luminoskan Ascent (Thermo Fisher Scientific). Dose-response curves of the compounds were performed in 2-fold (0.0625–32 µM). The same experimental set-up was used for the U2OS ERBB2/ERBB4, U2OS ERBB2/ERBB3 and U2OS ERBB1/ERBB1 dimerization cell lines. […]
(b) DRC showing t he effect of NRG1 (full line with full circle) on the […]
1x10-6 M NRG1; n=5 biological replicates for NRG1 + EF -1 10 µM for all concentrations of NRG1, except […]
concentrations of NRG1, except n=2 for 3x10-7 M and 1x10-6 M NRG1). All data are presented as mean ± SD. Source data are provided as a Source Data file . CPD, compound; DRC; dose response curve; FC, fold change; F-NRG1, fluorescent ly labeled NRG1; M, molar concentration; NRG1, neuregulin-1; Veh, […]

[1] = tested on: ERK1/2 phosphorylation (pERK1/2/ERK1/2); assay: Western blot pERK1/2/ERK1/2 in iAMs; assay type: cell-based, rat; conditions: for pErk/Erk, relative to vehicle of the same time point: iAMs, single replicates; for phosphorylation of ERK1/2 in iAMs (in words): NRG1 10 nM or EF-1 32 µM
Method: Hearts of the aforementioned transgenic mice were removed immediately after the animals had been killed. Cells and heart tissue were collected in RIPA lysis buffer (Thermo Fisher Scientific, 89900) supplemented with protease inhibitors (Merck, 11836153001) and phosphatase inhibitors (Merck, 4906845001) and the lysates were centrifuged at 14,000 × g for 10 min. The supernatants were collected, supplemented with sample buffer, and incubated at 95 °C for 5 min. Protein quantification was done with Pierce^TM BCA Protein Assay Kits (Thermo Fisher, 23227) according to the manufacturer’s instructions. Equal protein amounts of clarified lysates (20 µg) were subsequently separated by sodium dodecyl sulfate (SDS) polyacrylamide gel electrophoresis (165 V, 400 mA, 60 min) and transferred onto polyvinylidene fluoride membranes by electroblotting (100 V, 400 mA, 90 min). Next, the membranes were incubated for 1 h with Li-Cor blocking buffer (Li-Cor, 927-60001) at RT in Tris-buffered saline (TBS), supplemented with 0.1% Tween (BIO-RAD, 1706531). Next, primary antibodies were added (see below and Table 1a) in Li-Cor blocking buffer supplemented with 0.1% Tween, and the membranes were incubated overnight at 4 °C on a shaker. Following washing with TBS-0.1% Tween, the membranes were incubated for 1 h at RT with corresponding IRDye-conjugated secondary antibodies (See below and Table 1b) in Li-Cor blocking buffer supplemented with […] and 0.1% Tween. The membrane was visualized with the Odessey imaging system.

HCFs = assay: RT-qPCR on signaling pathway genes in HCFs; assay type: cell-based, human; conditions: single replicates
Method: RNA was extracted using Nucleospin RNA XS (Macherey-Nagel, 740902.50) according to the manufacturer’s instructions. For cDNA synthesis, total RNA was added to a mixture containing buffer with random hexamers and reverse transcriptase enzyme (TaqMan reverse transcription reagents, Applied biosystems, N8080234) after which samples were incubated for 10 min at 25 °C, 30 min at 48 °C, and 5 min at 95 °C. RT-qPCR was performed on QuantStudio 3 Real-time PCR system (Applied Biosystems) using Taqman Universal PCR Master Mix (Applied Biosystems, 4304437) and Taqman primers according to the manufacturer’s instructions. Settings were as follows: […] followed by 10 min at 95 °C, 40 cycles (45 cycles for ERBB4) of denaturation at 95 °C for 15 s, and 1 min at 60 °C. All reactions were run in duplicate, and all data were normalized against housekeeping genes glyceraldehyde-3-phosphate dehydrogenase (GAPDH), beta-actin (ACTB), or phosphoglycerate kinase 1 (PGK1). Expression levels were calculated using the comparative cycle method and expressed as fold change (FC) to appropriate controls. The following TaqMan primers were used (Thermo Fisher Scientific): GAPDH (Hs02758991_g1, Mm99999915_g1 and Rn01775763_g1), PGK1 (Hs99999906_m1), ID2 (Hs04187239_m1), BMPR1B (Hs01010965_m1), CACNA2D4 (Hs00297782_m1), DUSP2 (Hs00358879_m1), NR4A1 (Hs00374226_m1), SGK1 (Hs00178612_m1), COL1A1 (Mm00801666_g1), COL3A1 (Hs00943809_m1 and Mm00802305_g1), ERBB4 (Hs00955525_m1 and Rn00572447_m1), ACTB (Mm02619580_g1) and ANP (Mm01255747_g1).

T1 sequence (Q15303 26-1308): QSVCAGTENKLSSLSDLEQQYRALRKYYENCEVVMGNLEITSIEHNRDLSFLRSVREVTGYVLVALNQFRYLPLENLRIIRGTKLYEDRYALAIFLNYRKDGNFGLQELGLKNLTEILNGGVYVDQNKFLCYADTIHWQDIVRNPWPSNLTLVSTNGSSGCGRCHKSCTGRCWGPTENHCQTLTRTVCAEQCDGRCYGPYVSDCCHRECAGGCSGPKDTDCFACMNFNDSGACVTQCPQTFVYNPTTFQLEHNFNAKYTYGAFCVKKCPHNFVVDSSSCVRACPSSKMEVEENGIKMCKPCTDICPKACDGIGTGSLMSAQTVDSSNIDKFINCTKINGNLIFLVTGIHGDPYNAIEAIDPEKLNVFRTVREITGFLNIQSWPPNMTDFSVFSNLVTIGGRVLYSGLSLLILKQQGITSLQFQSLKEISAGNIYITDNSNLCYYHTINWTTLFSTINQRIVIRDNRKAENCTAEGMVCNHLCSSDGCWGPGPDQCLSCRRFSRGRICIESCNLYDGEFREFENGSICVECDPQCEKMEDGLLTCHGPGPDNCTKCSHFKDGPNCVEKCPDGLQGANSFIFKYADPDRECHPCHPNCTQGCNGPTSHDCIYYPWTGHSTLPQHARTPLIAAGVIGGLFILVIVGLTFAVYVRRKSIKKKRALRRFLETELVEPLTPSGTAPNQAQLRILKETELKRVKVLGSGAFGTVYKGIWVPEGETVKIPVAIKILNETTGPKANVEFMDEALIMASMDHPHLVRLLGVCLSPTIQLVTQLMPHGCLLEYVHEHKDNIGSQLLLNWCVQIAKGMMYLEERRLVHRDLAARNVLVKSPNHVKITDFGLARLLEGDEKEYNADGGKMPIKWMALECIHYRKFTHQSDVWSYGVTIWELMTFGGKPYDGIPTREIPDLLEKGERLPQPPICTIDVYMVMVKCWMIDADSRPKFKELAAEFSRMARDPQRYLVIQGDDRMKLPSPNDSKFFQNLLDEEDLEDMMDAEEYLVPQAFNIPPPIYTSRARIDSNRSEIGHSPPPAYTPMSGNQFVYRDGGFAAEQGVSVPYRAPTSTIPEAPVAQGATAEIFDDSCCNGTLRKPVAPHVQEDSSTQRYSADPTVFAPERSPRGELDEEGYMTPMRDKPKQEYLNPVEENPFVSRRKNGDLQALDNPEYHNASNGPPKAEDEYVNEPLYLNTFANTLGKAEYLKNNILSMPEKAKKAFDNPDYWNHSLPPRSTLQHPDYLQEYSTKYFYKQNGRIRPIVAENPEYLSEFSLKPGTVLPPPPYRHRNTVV
T1 sequence (Q15303 26-1308): as above

Molecule: O=C(NC1CC1)C(Sc1nc2ccccc2c(=O)n1C1CCCC1)c1ccccc1 (stereo not shown) [EF-1]
Chemiluminescence-based competition assay with NRG1 and EF-1, signal (ERBB4/ERBB4; EF-1 1 µM, NRG1 1e-11 M): 0
Chemiluminescence-based competition assay with NRG1 and EF-1, signal (ERBB4/ERBB4; EF-1 1 µM, NRG1 3e-7 M): 96.5132 and 159.12 and 135.867 and 151.14
Chemiluminescence-based competition assay with NRG1 and EF-1, signal (ERBB4/ERBB4; EF-1 1 µM, NRG1 1e-6 M): 151.834 and 150.068 and 166.317
Chemiluminescence-based competition assay with NRG1 and EF-1, signal (ERBB4/ERBB4; EF-1 10 µM, NRG1 1e-11 M): 0
Chemiluminescence-based competition assay with NRG1 and EF-1, signal (ERBB4/ERBB4; EF-1 10 µM, NRG1 3e-7 M): 204.858 and 319.881 and 318.093 and 238.507
Chemiluminescence-based competition assay with NRG1 and EF-1, signal (ERBB4/ERBB4; EF-1 10 µM, NRG1 1e-6 M): 299.545
potentiation of NRG1-induced ERBB4 homodimerization (ERBB4/ERBB4; EF-1 32 µM): 299.5%
Chemiluminescence-based competition assay with NRG1 and EF-1, signal (ERBB4/ERBB4; EF-1 32 µM, NRG1 1e-11 M): 0
Chemiluminescence-based competition assay with NRG1 and EF-1, signal (ERBB4/ERBB4; EF-1 32 µM, NRG1 1e-7 M): 179.706 and 213.306 and 260.377 and 233.656 and 250.186
Chemiluminescence-based competition assay with NRG1 and EF-1, signal (ERBB4/ERBB4; EF-1 32 µM, NRG1 3e-7 M): 277.077 and 253.156
Chemiluminescence-based competition assay with NRG1 and EF-1, signal (ERBB4/ERBB4; EF-1 32 µM, NRG1 1e-6 M): 257.842 and 279.551
time of peak levels of ERK1/2 phosphorylation ([1]; EF-1): 15 min
pErk/Erk, relative to vehicle of the same time point ([1]; EF-1 32 µM, 0 minutes): 1.078 and 1.057 and 1.137 and 0.8985
pErk/Erk, relative to vehicle of the same time point ([1]; EF-1 32 µM, 15 minutes): 1.66 and 1.416 and 1.274 and 1.578
pErk/Erk, relative to vehicle of the same time point ([1]; EF-1 32 µM, 60 minutes): 1.162 and 1.018 and 1.18 and 0.9894
pErk/Erk, relative to vehicle of the same time point ([1]; EF-1 32 µM, 120 minutes): 0.9869 and 1.003 and 0.9414 and 0.8187
pErk/Erk, relative to vehicle of the same time point ([1]; EF-1 32 µM, 240 minutes): 0.9968 and 1.428 and 1.0991 and 0.9249
phosphorylation of ERK1/2 in iAMs (in words) [1]: transient phosphorylation of ERK1/2
BMPR1B mRNA, normalized FC compared to vehicle (HCFs): 0.7674 and 0.7715 and 0.7478 and 0.6131
CACNA2D4 mRNA, normalized FC compared to vehicle (HCFs): 0.6726 and 0.5139 and 0.5641 and 0.6199
DUSP2 mRNA, normalized FC compared to vehicle (HCFs): 0.652 and 0.6672 and 0.8266 and 0.7945
ID2 mRNA, normalized FC compared to vehicle (HCFs): 0.7995 and 0.6935 and 0.711 and 0.7833
NR4A1 mRNA, normalized FC compared to vehicle (HCFs): 0.6281 and 0.8412 and 0.7864 and 0.7806
SGK1 mRNA, normalized FC compared to vehicle (HCFs): 0.5165 and 0.6795 and 0.6992 and 0.5618

Chemiluminescence-based competition assay with NRG1 and EF-1, signal (ERBB4/ERBB4; NRG1 1e-11 M, no EF-1): 0
Molecule: neuregulin-1 [NRG1]
Chemiluminescence-based competition assay with NRG1 and EF-1, signal (ERBB4/ERBB4; NRG1 1e-7 M, no EF-1): 101.055 and 98.9454 and 97.307 and 102.693 and 100 and 86.6131 and 109.42
Chemiluminescence-based competition assay with NRG1 and EF-1, signal (ERBB4/ERBB4; NRG1 3e-7 M, no EF-1): 95.7195 and 99.6882 and 104.291 and 93.5081 and 90.5392 and 120.599 and 107.787
Chemiluminescence-based competition assay with NRG1 and EF-1, signal (ERBB4/ERBB4; NRG1 1e-6 M, no EF-1): 99.5216 and 99.741 and 109.693 and 98.1524
phosphorylation of ERK1/2 in iAMs (in words) [1]: time-dependent phosphorylation of ERK1/2
pErk/Erk, relative to vehicle of the same time point ([1]; NRG1 10 nM, 0 minutes): 0.7394 and 1.087 and 0.6444
pErk/Erk, relative to vehicle of the same time point ([1]; NRG1 10 nM, 15 minutes): 2.343 and 1.9112 and 1.767
pErk/Erk, relative to vehicle of the same time point ([1]; NRG1 10 nM, 60 minutes): 3.329 and 2.139 and 1.769
pErk/Erk, relative to vehicle of the same time point ([1]; NRG1 10 nM, 120 minutes): 1.461 and 2.784 and 4.448
pErk/Erk, relative to vehicle of the same time point ([1]; NRG1 10 nM, 240 minutes): 3.3773 and 3.181
BMPR1B mRNA, normalized FC compared to vehicle (HCFs): 0.8467 and 0.8788 and 0.6722 and 0.547
CACNA2D4 mRNA, normalized FC compared to vehicle (HCFs): 0.587 and 0.7244 and 0.5309 and 0.2575
DUSP2 mRNA, normalized FC compared to vehicle (HCFs): 0.9928 and 0.6481 and 0.6778 and 0.7386
ID2 mRNA, normalized FC compared to vehicle (HCFs): 0.8573 and 0.8679 and 0.8306 and 0.7992
NR4A1 mRNA, normalized FC compared to vehicle (HCFs): 0.5297 and 0.9275 and 0.7063 and 0.8111
SGK1 mRNA, normalized FC compared to vehicle (HCFs): 0.7797 and 0.9219 and 0.8239 and 0.6521
